A short description of the data set: Moisture sorption profile (DVS). Type of data set: physicochemical. The settings on record: by 95% RH; FIG. 6. As for the experimental part: Moisture Sorption: Moisture sorption data was collected using a Surface Measurement Systems DVSAdvantage instrument. Equilibrium criteria were set at ±0.001% weight change in 10 minutes with a maximum equilibrium time of 360 minutes.

Regarding `CO[C@]1(CN2CCN3CCCC[C@@H]3C2)/C=C/C[C@H](C)[C@@H](C)S(=O)(=O)NC(=O)c2ccc3c(c2)N(C[C@@H]2CC[C@H]21)C[C@@]1(CCCc2cc(Cl)ccc21)CO3` [crystalline hydrate form of compound A], the “weight gain (moisture sorption profile)” value stood at 3.3%.

These data come from patent publication US20230117777A1, “METHYLATION OF MCL-1 COMPOUNDS” (Amgen Inc., priority 2020, published 2023).
